Several values for one entry are separate records, joined by “and”; a condition that tells them apart may be missing. Equal values may be shown once. Read-outs that look alike come from different tables or passages of the source.
Tests used:
[1] = Pharmacokinetics of Compound A in the CIA study (groups 8 and 9); format: in vivo; details: Lewis rats
Method: (§1) Blood samples were collected from animals in group 8 on Day 0, and blood samples were collected from group 9 on Day 20. Blood samples from group 8 and group 9 were collected at 0.25, 0.5, 1, 2, 4, 8, 10, 12, 13, and 24-hours following morning administration of their first dose of the compound. The second dose of the compound was administered after the 8-hour collection timepoint. All blood samples were collected at the eye socket and put into tubes containing EDTA-K2 as an anticoagulant and centrifuged at 4° C. at 4,000 g for 5 minutes. Plasma was transferred to a separate tube and stored at −75+15° C. for PK analysis. Pharmacokinetic analyses for Compound A in Lewis rats were performed as described in Experimental Method B.
as §1, with “−75±15°” for “−75+15°”, “Pharmacokinetic analyses for Compound A in Lewis rats were performed as described in Experimental Method B.” left out

[2] = CIA study: clinical observations; format: in vivo, Lewis rats; details: CIA rats
[3] = CIA study: pharmacokinetics / plasma concentration after oral administration; format: in vivo, Lewis rats; details: for concentration at 21 day: oral
[4] = CIA-induced animals, day 0, 3 mg/kg, average
[5] = CIA-induced animals, day 0, 3 mg/kg, individual test subjects
[6] = CIA-induced animals, day 21, 3 mg/kg, average
[7] = CIA-induced animals, day 21, 3 mg/kg, individual test subjects

Cn1cc(-c2ccccc2)c(-c2cn(C)c(=O)c3[nH]c(-c4cnn(C(F)(F)F)c4)cc23)cc1=O [Compound A, 6-methyl-4-(1-methyl-2-oxo-5-phenyl-1,2-dihydropyridin-4-yl)-2-(1-(trifluoromethyl)-1H-pyrazol-4-yl)-1,6-dihydro-7H-pyrrolo[2,3-c]pyridin-7-one]
period of increasing plasma concentration after oral administration [1]: approximately the first four hours
Clinical observations ([2]; 1 mg/kg, Day 16): Diarrhea
Clinical observations ([2]; 3 mg/kg, Day 13): Diarrhea
Clinical observations ([2]; 3 mg/kg, Day 14): Diarrhea
Clinical observations ([2]; 3 mg/kg, Day 15): Diarrhea
Clinical observations ([2]; 3 mg/kg, Day 16): Diarrhea
Clinical observations ([2]; 3 mg/kg, Day 21): Diar-
Clinical observations ([2]; 10 mg/kg, Day 12): Diarrhea
Clinical observations ([2]; 10 mg/kg, Day 13): Diarrhea
Clinical observations ([2]; 10 mg/kg, Day 14): Diarrhea
Clinical observations ([2]; 10 mg/kg, Day 15): Diarrhea
Clinical observations ([2]; 10 mg/kg, Day 16): Diarrhea
Clinical observations ([2]; 10 mg/kg, Day 17): Diarrhea
Clinical observations ([2]; 10 mg/kg, Day 18): Diarrhea
AUClast/D (Mean) [3, 4]: 509 mg·h/mL
AUC—%Extrap—obs (Mean) [3, 4]: 14.0%
AUCInf [3, 5]: 1393 ng·h/mL and 1454 ng·h/mL
AUClast [3, 5]: 1250 ng·h/mL and 1264 ng·h/mL
AUC—%Extrap—obs [3, 5]: 18.6% and 10.3% and 13.1%
Cmax [3, 5]: 77.9 ng/mL and 82.6 ng/mL
MRTInf—obs [3, 5]: 10.7 h and 11.8 h
T1/2 [3, 5]: 7.03 h and 7.60 h
AUClast/D (Mean) [3, 6]: 246 mg·h/mL
AUC—%Extrap—obs (Mean) [3, 6]: 17.3%
MRTlnf—obs (Mean) [3, 6]: 13.5 h
AUCInf [3, 7]: 1059 ng·h/mL and 985 ng·h/mL
AUClast [3, 7]: 826 ng·h/mL and 784 ng·h/mL
AUC—%Extrap—obs [3, 7]: 9.67% and 22.0% and 20.4%
Cmax [3, 7]: 51.2 ng/mL and 45.7 ng/mL
MRTInf—obs [3, 7]: 15.5 h and 14.9 h
T1/2 [3, 7]: 10.3 h and 9.68 h
Plasma Concentration ([3]; Day 21, CIA rats, 1 mg/kg): 12.8 ng/mL and 14.5 ng/mL and 13.9 ng/mL and 14.3 ng/mL and 21.1 ng/mL and 20.6 ng/mL
Plasma Concentration ([3]; Day 21, CIA rats, 10 mg/kg): 181 ng/mL and 240 ng/mL and 230 ng/mL and 264 ng/mL and 174 ng/mL and 255 ng/mL and 248 ng/mL
concentration at 21 day ([3]; Lewis, rat, plasma, 1 mg/kg, Day 21, CIA rats, 1 mg/kg, read-out: Plasma Concentration): 13 ng/mL
concentration at 21 day ([3]; Lewis, rat, plasma, 1 mg/kg, Group 5 (CIA + Compound A 1 mg/kg), read-out: Day 21 Mean Plasma Concentration): 15.5 ng/mL
concentration at 21 day ([3]; Lewis, rat, plasma, 3 mg/kg, Group 6 (CIA + Compound A 3 mg/kg), read-out: Day 21 Mean Plasma Concentration): 49.5 ng/mL
concentration at 21 day ([3]; Lewis, rat, plasma, 10 mg/kg, Day 21, CIA rats, 10 mg/kg, read-out: Plasma Concentration): 232 ng/mL
concentration at 21 day ([3]; Lewis, rat, plasma, 10 mg/kg, Group 7 (CIA + Compound A 10 mg/kg), read-out: Day 21 Mean Plasma Concentration): 221 ng/mL
AUC(0-inf) ([3]; Lewis, rat, plasma, po, 3 mg/kg, CIA-induced animals, day 0, 3 mg/kg, average, read-out: AUCInf (Mean)): 1800 ng·h/mL
AUC(0-t) ([3]; Lewis, rat, plasma, po, 3 mg/kg, CIA-induced animals, day 0, 3 mg/kg, average, read-out: AUClast (Mean)): 1530 ng·h/mL
Cmax ([3]; Lewis, rat, plasma, po, 3 mg/kg, CIA-induced animals, day 0, 3 mg/kg, average, read-out: Cmax (Mean)): 95 ng/mL
MRT inf ([3]; Lewis, rat, plasma, po, 3 mg/kg, CIA-induced animals, day 0, 3 mg/kg, average, read-out: MRTInf—obs (Mean)): 12.2 h
half-life ([3]; Lewis, rat, plasma, po, 3 mg/kg, CIA-induced animals, day 0, 3 mg/kg, average, read-out: T1/2 (Mean) (converted)): 476 min
Tmax ([3]; Lewis, rat, plasma, po, 3 mg/kg, CIA-induced animals, day 0, 3 mg/kg, average, read-out: Tmax (Mean)): 5.33 h
AUC(0-inf) ([3]; Lewis, rat, plasma, po, 3 mg/kg, CIA-induced animals, day 0, 3 mg/kg, individual test subjects, read-out: AUCInf): 2540 ng·h/mL
AUC(0-t) ([3]; Lewis, rat, plasma, po, 3 mg/kg, CIA-induced animals, day 0, 3 mg/kg, individual test subjects, read-out: AUClast): 2070 ng·h/mL
Cmax ([3]; Lewis, rat, plasma, po, 3 mg/kg, CIA-induced animals, day 0, 3 mg/kg, individual test subjects, read-out: Cmax): 123 ng/mL
MRT inf ([3]; Lewis, rat, plasma, po, 3 mg/kg, CIA-induced animals, day 0, 3 mg/kg, individual test subjects, read-out: MRTInf—obs): 14.1 h
half-life ([3]; Lewis, rat, plasma, po, 3 mg/kg, CIA-induced animals, day 0, 3 mg/kg, individual test subjects, read-out: T1/2 (converted)): 551 min
Tmax ([3]; Lewis, rat, plasma, po, 3 mg/kg, CIA-induced animals, day 0, 3 mg/kg, individual test subjects, read-out: Tmax): 6 h
AUC(0-t) ([3]; Lewis, rat, plasma, po, 3 mg/kg, CIA-induced animals, day 21, 3 mg/kg, average, read-out: AUClast (Mean)): 738 ng·h/mL
Cmax ([3]; Lewis, rat, plasma, po, 3 mg/kg, CIA-induced animals, day 21, 3 mg/kg, average, read-out: Cmax (Mean)): 48.4 ng/mL
half-life ([3]; Lewis, rat, plasma, po, 3 mg/kg, CIA-induced animals, day 21, 3 mg/kg, average, read-out: T1/2 (Mean) (converted)): 534 min
Tmax ([3]; Lewis, rat, plasma, po, 3 mg/kg, CIA-induced animals, day 21, 3 mg/kg, average, read-out: Tmax (Mean)): 5.33 h
AUC(0-inf) ([3]; Lewis, rat, plasma, po, 3 mg/kg, CIA-induced animals, day 21, 3 mg/kg, individual test subjects, read-out: AUCInf): 668 ng·h/mL
AUC(0-t) ([3]; Lewis, rat, plasma, po, 3 mg/kg, CIA-induced animals, day 21, 3 mg/kg, individual test subjects, read-out: AUClast): 604 ng·h/mL
Cmax ([3]; Lewis, rat, plasma, po, 3 mg/kg, CIA-induced animals, day 21, 3 mg/kg, individual test subjects, read-out: Cmax): 48.3 ng/mL

Source: US20260217701A1, “SELECTIVE BET INHIBITORS AND USES THEREOF” (Tay Therapeutics Limited, priority 2022, published 2026)
